The record followed here is US20020026053A1, “Novel 3-(substituted) -2- indolinones compounds and use thereof as inhibitors of protein kinase activity” (priority 1997, published 2002).

The target of this assay is T1, Met receptor (EGFR/Met chimeric cells, EMR) (Homo sapiens, UniProt P08581).
T1 construct: expressed in transfected cells; the other entry of the earlier key: EGFR (P00533, Epidermal growth factor receptor)
T1 sequence (P08581 with tags, fused parts or gaps): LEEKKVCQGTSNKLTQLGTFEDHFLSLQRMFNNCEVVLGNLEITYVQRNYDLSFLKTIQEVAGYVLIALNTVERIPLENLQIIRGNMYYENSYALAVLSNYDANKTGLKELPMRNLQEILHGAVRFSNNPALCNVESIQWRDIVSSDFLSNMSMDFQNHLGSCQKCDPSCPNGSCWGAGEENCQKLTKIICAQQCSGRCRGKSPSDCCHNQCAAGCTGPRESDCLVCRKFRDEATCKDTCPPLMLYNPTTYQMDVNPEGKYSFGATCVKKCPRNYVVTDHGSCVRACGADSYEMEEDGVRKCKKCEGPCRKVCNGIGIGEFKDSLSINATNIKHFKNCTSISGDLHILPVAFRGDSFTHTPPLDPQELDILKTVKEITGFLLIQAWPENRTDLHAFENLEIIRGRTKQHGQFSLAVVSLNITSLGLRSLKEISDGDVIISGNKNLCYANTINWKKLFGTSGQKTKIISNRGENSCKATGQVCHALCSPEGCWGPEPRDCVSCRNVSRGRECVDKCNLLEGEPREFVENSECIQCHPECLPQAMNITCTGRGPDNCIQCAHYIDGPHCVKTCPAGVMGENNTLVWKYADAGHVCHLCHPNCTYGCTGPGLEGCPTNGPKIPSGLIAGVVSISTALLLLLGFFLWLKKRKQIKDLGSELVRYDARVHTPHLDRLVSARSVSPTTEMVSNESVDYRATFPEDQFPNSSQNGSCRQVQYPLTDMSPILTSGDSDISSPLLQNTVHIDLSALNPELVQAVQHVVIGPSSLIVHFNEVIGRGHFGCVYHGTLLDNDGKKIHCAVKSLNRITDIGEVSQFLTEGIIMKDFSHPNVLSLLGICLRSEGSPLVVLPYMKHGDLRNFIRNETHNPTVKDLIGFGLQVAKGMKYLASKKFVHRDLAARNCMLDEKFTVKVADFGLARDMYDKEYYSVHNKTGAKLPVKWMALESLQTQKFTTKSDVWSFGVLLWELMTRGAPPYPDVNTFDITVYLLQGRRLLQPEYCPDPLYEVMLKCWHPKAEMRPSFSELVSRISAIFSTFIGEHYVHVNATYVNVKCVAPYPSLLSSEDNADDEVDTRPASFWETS
Briefly: Met Autophosphorylation Assay. Conditions: protocol P.130. In kind it is biochemical. In a few lines: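 Met phosphorylation was measured by capture ELISA. Lysates (90 μg/100 μl, HNTG plus 1 mM PMSF) from transiently transfected EGFR/Met chimera (EMR) cells were bound for 60 min at room temperature to wells holding rabbit anti-Met (C-28) on goat anti-rabbit coat. Phosphotyrosine was the read-out.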
In the case of `Cc1c(Br)ccc2c1C(=Cc1cccc(O)c1O)C(=O)N2` [10738/C06], the “Met Kinase % Inhibition (P.130)” value is listed as 92.2%.
As for `COc1ccccc1C=C1C(=O)Nc2ccc(S(=O)(=O)N3CCOCC3)cc21` [10738/F09], the “Met Kinase % Inhibition (P.130)” value is listed as 28.9%.
In the case of `O=C1Nc2c(Br)cc(Br)cc2C1=Cc1ccc(Cl)c(Cl)c1` [10738/A08] it was 12.2%; in that of `Cc1ccc(Oc2cccc(C=C3C(=O)Nc4ccc(S(=O)(=O)Nc5ccc(C(F)(F)F)cc5)cc43)c2)cc1` [10738/E02], 3.8%.
As to `CNS(=O)(=O)c1ccc2c(c1)C(=Cc1cc(O)cc(O)c1)C(=O)N2` [10738/D07], the “Met Kinase % Inhibition (P.130)” value was 68.3%.
In the case of `Cc1c(Br)cc(Br)c2c1C(=Cc1cccc(Oc3cccc(C(F)(F)F)c3)c1)C(=O)N2` [10737/H11] it was 31.7%; in that of `Cc1ccc(Oc2cccc(C=C3C(=O)Nc4c(Br)cc(Br)c(C)c43)c2)cc1` [10738/H02], 35.3%; in that of `O=C1Nc2ccc(I)cc2C1=Cc1cc(O)cc(O)c1` [10738/B07], 66.7%.
In the case of `CNS(=O)(=O)c1ccc2c(c1)C(=Cc1cccc(O)c1O)C(=O)N2` [10738/D06] it was 96.0%.
Turning to `COc1ccccc1C=C1C(=O)Nc2ccc(Br)c(C)c21` [10738/C09], the “Met Kinase % Inhibition (P.130)” value came out at 8.9%.
For `COc1ccc(C=C2C(=O)Nc3ccc(CCCl)cc32)cc1O` [10738/G04], the “Met Kinase % Inhibition (P.130)” value was 42.6%.
